In patent publication US10844038B2, “1,2-dithiolane compounds useful in neuroprotection, autoimmune and cancer diseases and conditions” (SABILA BIOSCIENCES LLC, priority 2016, dated 2020):

Assays:
[1] = biological target: MEK5 (Homo sapiens (Human), UniProt Q13163); assay: KINOMEscan competition binding assay (Kd); details: Table 9, read-out: Kd Values Against Representative MEK5 Kinase: MEK5
Protocol: (§1) KINOMEscan™ is based on a competition binding assay that quantitatively measures the ability of a test compound of the invention to compete with an immobilized, active-site directed ligand. The Kinase assay is performed by combining three components: DNA-tagged kinase; immobilized ligand; and a test compound. The ability of the test compound to compete with the immobilized ligand is measured via quantitative PCR of the DNA tag.
(§2) For most assays, kinase-tagged T7 phage strains were prepared in an E. coli host derived from the BL21 strain. E. coli were grown to log-phase and infected with T7 phage and incubated with shaking at 32° C. until lysis. The lysates were centrifuged and filtered to remove cell debris. The remaining kinases were produced in HEK-293 cells and subsequently tagged with DNA for qPCR detection. Streptavidin-coated magnetic beads were treated with biotinylated small molecule ligands for 30 minutes at room temperature to generate affinity resins for kinase assays. The liganded beads were blocked with excess biotin and washed with blocking buffer (SeaBlock (Pierce), 1% BSA, 0.05% Tween 20, 1 mM DTT) to remove unbound ligand and to reduce nonspecific binding. […] All reactions were performed in polystyrene 96-well plates in a final volume of 0.135 ml. […] The kinase concentration in the eluates was measured by qPCR.

[2] = biological target: T1, FYN (Homo sapiens (Human), UniProt P06241); assay: Radioisotope filter binding assay; type: biochemical; details: read-out: IC50 Activity Levels Against SRC Family Kinases: FYN
T1 sequence (P06241 whole entry): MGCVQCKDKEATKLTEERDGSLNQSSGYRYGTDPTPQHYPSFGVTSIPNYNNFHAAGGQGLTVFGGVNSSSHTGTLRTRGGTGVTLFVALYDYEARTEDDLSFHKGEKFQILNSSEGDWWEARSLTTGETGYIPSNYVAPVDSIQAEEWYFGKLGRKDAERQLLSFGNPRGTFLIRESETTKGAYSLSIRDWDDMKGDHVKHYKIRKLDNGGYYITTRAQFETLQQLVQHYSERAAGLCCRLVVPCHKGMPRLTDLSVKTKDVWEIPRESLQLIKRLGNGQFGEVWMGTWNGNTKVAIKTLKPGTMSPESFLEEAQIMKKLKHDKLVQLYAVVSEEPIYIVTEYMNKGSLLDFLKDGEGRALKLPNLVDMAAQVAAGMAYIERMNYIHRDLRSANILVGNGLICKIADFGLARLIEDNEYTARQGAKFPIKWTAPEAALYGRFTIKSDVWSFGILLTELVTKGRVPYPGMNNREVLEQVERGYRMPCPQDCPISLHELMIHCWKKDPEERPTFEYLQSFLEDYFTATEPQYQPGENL
Protocol: (§3) 3. Radioisotope Filter Binding Assay:
(§4) In this assay format, it directly detects the true product without the use of modified substrates or coupling enzymes (Uitdehaag, J. C., et al. Br. J. Pharmacol. 2012, 166, 858-876; Hastie, C. J., et al. Nat. Protoc. 2006, 1, 968-971) according to equation 1. Substrate+[γ−^33P]−ATP→^33P-Substrate+ADP eq 1
(§5) The protocol calls for test compound of the invention to be incubated with kinase, substrate, cofactors, and radio-isotope-labeled ATP (^33P-gamma-ATP). The reaction mixtures are then spotted onto filter papers which bind the radioisotope labeled catalytic product. Unreacted phosphate is removed via washing. The reagents used include base reaction buffer; 20 mM Hepes (pH 7.5), 10 mM MgCl2, 1 mM EGTA, 0.02% Brij35, 0.02 mg/ml BSA, 0.1 mM Na3VO4, 2 mM DTT, 1% DMSO. The reaction procedure include the following steps: (1) prepare indicated substrate in freshly prepared base reaction buffer, (2) deliver any required cofactors to the substrate solution above, (3) deliver indicated kinase into the substrate solution and gently mix, (4) deliver compounds in DMSO into the kinase reaction mixture by Acoustic technology (Echo550; nanoliter range), incubate for 20 minutes at room temperature, (5) deliver ^33P-ATP (specific activity 10 μCi/μL) into the reaction mixture to initiate the reaction, (6) incubate kinase reaction for 2 hours at room temperature, (7) reactions are spotted onto P81 ion exchange paper, (8) detect kinase activity by filter-binding method.

[3] = biological target: mTOR (Homo sapiens (Human), UniProt P42345); assay: KINOMEscan competition binding assay (Kd); details: read-out: Kd Values Against mTOR Kinase: mTOR
Protocol: as §1, §2

[4] = biological target: BTK (Homo sapiens (Human), UniProt Q06187); assay: KINOMEscan competition binding assay (Kd); details: read-out: Kd Values Against Representative TEC Family Kinases: BTK
BTK, sequence (Q06187 whole entry): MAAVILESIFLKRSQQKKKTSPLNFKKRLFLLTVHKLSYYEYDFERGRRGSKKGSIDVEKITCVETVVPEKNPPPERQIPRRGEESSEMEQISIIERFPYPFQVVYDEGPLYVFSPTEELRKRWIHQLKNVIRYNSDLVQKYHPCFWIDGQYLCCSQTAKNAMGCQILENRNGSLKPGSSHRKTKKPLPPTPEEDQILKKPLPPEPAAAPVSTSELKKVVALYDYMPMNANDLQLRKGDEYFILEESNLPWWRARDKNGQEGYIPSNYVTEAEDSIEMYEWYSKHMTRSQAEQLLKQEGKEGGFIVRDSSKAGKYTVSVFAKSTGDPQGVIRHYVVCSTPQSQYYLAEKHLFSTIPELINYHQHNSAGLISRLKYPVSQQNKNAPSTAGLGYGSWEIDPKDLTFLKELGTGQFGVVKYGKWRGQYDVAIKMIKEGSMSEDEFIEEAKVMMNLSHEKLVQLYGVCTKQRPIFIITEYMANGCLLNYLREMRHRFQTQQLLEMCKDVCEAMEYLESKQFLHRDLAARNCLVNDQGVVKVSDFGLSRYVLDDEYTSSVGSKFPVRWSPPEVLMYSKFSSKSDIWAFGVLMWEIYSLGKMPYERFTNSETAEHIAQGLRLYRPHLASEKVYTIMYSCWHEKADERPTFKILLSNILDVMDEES
Protocol: as §1, §2

[5] = biological target: BRAF (Homo sapiens (Human), UniProt P15056); assay: KINOMEscan competition binding assay (Kd); details: read-out: Kd Values Against MAPK Pathway Kinases: BRAF
BRAF, sequence (P15056 whole entry): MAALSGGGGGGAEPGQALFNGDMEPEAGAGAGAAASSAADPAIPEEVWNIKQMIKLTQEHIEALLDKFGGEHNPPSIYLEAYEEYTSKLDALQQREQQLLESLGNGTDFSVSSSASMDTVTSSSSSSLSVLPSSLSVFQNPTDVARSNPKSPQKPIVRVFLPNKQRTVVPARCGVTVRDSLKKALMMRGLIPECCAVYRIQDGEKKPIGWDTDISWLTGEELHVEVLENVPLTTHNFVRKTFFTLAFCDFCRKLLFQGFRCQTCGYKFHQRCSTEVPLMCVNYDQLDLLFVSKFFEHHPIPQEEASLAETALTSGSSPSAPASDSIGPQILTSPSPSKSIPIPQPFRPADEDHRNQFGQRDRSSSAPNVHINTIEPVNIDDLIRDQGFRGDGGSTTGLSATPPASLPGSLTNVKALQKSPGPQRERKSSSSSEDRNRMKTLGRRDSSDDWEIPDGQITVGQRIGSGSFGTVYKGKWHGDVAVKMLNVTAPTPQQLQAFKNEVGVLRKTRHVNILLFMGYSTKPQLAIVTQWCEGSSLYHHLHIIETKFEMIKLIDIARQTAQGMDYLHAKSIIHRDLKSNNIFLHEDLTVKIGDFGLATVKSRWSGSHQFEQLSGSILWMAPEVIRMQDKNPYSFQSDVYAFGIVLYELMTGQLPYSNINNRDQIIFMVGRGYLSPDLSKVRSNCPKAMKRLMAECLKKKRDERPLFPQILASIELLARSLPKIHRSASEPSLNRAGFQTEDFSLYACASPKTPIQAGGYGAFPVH
Protocol: as §1, §2

[6] = biological target: Bruton Tyrosine Kinase (BTK) (Homo sapiens (Human), UniProt Q06187); assay: Rabbit reticulocyte lysate assay (KinaseSeeker competition binding); details: read-out: IC50 Activity Levels Against Bruton Tyrosine Kinase: BTK
Bruton Tyrosine Kinase (BTK), sequence (Q06187 whole entry): as the sequence (Q06187 whole entry) above
Protocol: (§6) 1. Rabbit Reticulocyte Lysate Assay Design:
(§7) KinaseSeeker is a homogeneous competition binding assay where the displacement of an active site dependent probe by an inhibitor is measured by a change in luminescence signal. Luminescence readout translates into a highly sensitive and robust assay with low background and minimal interference from test compounds.
(§8) 10 mM stock solutions of test compounds were serially diluted in DMSO to make assay stocks. Prior to initiating IC50 determinations, the test compounds were evaluated for false positive against split-luciferase.
(§9) Each test compound was screened in duplicate against target kinase at 7 different concentrations. For kinase assays, Cfluc-kinase was translated along with Fos-Nfluc using a cell-free system (rabbit reticulocyte lysate) at 30° C. for 90 min. 24 uL aliquot of this lysate containing either 1 uL of DMSO (for no-inhibitor control) or compound solution in DMSO was incubated for 30 minutes at room temperature followed by 1 hour in presence of a kinase specific probe. 80 uL of luciferin assay reagent was added to each solution and luminescence was immediately measured on a luminometer.
(§10) The % Inhibition and % Activity Remaining was calculated using the following equation: % Inhibition=[(ALUControl−ALUSample)/ALUControl]×100 % Activity Remaining=100−% Inhibition
(§11) The % Activity was plotted against compound concentration and the IC50 was determined for each compound using a 7-point curve (Jester, B. W.; et. al. J. Am. Chem. Soc. 2010, 132, 11727-11735. Jester, B. W., et. al. J. Med. Chem. 2012, 55, 1526-1537). Biological activity of representative compounds of the disclosure are described in Table 5.

[7] = biological target: mTor/FRAP1 (Homo sapiens (Human), UniProt P42345); assay: Radioisotope filter binding assay; type: biochemical; details: read-out: IC50 Activity Levels Against Various PI3K and mTor Kinases: mTor/FRAP1
Protocol: as §3, §4, §5

[8] = biological target: PI3K γ (Homo sapiens (Human), UniProt P48736); assay: Radioisotope filter binding assay; type: biochemical; details: read-out: IC50 Activity Levels Against Various PI3K and mTor Kinases: PI3K γ
Protocol: as §3, §4, §5

[9] = biological target: PI3K α (Homo sapiens (Human), UniProt P42336); assay: Radioisotope filter binding assay; type: biochemical; details: read-out: IC50 Activity Levels Against Various PI3K and mTor Kinases: PI3K α
Protocol: as §3, §4, §5

[10] = biological target: PI3K β (Homo sapiens (Human), UniProt P42338); assay: Radioisotope filter binding assay; type: biochemical; details: read-out: IC50 Activity Levels Against Various PI3K and mTor Kinases: PI3K β
Protocol: as §3, §4, §5

[11] = biological target: CSK (Homo sapiens (Human), UniProt P41240); assay: Rabbit reticulocyte lysate assay (KinaseSeeker competition binding); details: read-out: % Inhibition Against SRC Family Kinases: CSK
CSK, sequence (P41240 whole entry): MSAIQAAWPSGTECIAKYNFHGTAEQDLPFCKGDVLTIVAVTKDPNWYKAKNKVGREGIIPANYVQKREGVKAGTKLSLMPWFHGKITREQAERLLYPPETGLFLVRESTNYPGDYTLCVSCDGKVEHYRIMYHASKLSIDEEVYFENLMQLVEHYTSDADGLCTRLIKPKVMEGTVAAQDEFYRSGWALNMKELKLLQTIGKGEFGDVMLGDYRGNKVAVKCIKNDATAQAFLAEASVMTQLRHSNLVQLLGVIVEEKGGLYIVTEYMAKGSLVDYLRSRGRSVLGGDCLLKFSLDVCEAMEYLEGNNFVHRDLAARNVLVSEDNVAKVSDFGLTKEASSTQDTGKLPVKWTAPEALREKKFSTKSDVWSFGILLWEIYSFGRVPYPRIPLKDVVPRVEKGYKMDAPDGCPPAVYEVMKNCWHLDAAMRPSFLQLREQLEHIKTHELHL
Protocol: as §6, §7, §8, §9, §10, §11

[12] = biological target: LYN (Homo sapiens (Human), UniProt P07948); assay: as above; details: read-out: % Inhibition Against SRC Family Kinases: LYN
LYN, sequence (P07948 whole entry): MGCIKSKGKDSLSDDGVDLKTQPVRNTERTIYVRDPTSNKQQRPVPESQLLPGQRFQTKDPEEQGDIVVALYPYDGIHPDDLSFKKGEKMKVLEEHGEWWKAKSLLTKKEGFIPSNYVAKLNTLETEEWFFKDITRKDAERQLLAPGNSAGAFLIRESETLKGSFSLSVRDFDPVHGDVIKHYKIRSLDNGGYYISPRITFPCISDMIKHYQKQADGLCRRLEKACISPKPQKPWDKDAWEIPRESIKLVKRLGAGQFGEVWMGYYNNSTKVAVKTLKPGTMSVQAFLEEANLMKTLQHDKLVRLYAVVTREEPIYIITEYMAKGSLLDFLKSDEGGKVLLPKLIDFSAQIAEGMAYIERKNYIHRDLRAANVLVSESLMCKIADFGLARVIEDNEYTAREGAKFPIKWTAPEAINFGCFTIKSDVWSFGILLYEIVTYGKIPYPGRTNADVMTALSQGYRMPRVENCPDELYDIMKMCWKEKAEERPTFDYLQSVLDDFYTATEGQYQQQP
Protocol: as §6, §7, §8, §9, §10, §11

[13] = biological target: YES1 (Homo sapiens (Human), UniProt P07947); assay: as above; details: at 1 μM, read-out: % Inhibition Against SRC Family Kinases: YES1
YES1, sequence (P07947 whole entry): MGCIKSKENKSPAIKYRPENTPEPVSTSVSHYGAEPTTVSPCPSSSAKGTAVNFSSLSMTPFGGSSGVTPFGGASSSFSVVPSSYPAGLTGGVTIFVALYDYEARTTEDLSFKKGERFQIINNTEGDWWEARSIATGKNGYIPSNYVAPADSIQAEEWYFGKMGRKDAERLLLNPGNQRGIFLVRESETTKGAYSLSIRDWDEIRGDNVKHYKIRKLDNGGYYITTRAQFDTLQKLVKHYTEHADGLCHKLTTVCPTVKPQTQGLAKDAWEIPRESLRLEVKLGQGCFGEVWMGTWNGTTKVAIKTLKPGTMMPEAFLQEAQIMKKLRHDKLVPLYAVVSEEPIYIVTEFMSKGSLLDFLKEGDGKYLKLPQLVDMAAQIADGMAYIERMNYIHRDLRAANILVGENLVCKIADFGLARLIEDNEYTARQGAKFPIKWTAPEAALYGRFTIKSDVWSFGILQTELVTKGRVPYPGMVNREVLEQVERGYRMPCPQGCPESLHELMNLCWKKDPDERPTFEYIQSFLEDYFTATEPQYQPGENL
Protocol: as §6, §7, §8, §9, §10, §11

[14] = biological target: FGR (Homo sapiens (Human), UniProt P09769); assay: as above; details: at 1 μM, read-out: % Inhibition Against SRC Family Kinases: FGR
Protocol: as §6, §7, §8, §9, §10, §11

[15] = biological target: SRC (Homo sapiens (Human), UniProt P12931); assay: as above; details: at 1 μM, read-out: % Inhibition Against SRC Family Kinases: SRC
SRC, sequence (P12931 whole entry, looked up): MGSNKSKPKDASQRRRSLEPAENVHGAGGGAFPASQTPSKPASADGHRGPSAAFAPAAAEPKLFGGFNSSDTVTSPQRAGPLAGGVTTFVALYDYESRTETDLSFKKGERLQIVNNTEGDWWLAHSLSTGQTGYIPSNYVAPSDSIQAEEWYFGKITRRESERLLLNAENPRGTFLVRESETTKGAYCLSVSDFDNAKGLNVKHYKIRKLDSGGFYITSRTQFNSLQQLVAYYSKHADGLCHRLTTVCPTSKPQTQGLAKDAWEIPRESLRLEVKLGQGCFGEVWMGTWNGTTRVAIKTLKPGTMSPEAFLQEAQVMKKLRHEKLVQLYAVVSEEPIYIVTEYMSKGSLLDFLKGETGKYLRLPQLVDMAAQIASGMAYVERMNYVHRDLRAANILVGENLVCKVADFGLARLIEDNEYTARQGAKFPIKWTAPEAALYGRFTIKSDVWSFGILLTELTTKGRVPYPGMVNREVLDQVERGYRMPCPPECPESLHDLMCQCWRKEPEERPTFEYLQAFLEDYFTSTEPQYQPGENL
Protocol: as §6, §7, §8, §9, §10, §11

[16] = biological target: T1, FYN; assay: as above; details: read-out: % Inhibition Against SRC Family Kinases: FYN
Protocol: as §6, §7, §8, §9, §10, §11

[17] = biological target: HCK (Homo sapiens (Human), UniProt P08631); assay: as above; details: at 1 μM, read-out: % Inhibition Against SRC Family Kinases: HCK
HCK, sequence (P08631 whole entry): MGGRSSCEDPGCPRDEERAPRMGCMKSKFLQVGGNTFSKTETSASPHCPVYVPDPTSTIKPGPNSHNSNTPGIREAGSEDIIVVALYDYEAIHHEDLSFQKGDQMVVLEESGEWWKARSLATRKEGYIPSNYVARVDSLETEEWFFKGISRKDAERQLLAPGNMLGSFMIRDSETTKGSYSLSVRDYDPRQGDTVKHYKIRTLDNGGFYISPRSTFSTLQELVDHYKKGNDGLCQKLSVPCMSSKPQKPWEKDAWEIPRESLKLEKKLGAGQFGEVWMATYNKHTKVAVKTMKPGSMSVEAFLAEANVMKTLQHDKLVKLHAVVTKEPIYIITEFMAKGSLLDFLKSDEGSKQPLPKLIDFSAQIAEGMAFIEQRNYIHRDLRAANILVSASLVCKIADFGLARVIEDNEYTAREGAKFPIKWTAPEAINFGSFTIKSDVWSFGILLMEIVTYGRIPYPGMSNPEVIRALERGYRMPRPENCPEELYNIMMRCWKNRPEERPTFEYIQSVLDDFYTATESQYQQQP
Protocol: as §6, §7, §8, §9, §10, §11

MEK5, sequence (Q13163 whole entry): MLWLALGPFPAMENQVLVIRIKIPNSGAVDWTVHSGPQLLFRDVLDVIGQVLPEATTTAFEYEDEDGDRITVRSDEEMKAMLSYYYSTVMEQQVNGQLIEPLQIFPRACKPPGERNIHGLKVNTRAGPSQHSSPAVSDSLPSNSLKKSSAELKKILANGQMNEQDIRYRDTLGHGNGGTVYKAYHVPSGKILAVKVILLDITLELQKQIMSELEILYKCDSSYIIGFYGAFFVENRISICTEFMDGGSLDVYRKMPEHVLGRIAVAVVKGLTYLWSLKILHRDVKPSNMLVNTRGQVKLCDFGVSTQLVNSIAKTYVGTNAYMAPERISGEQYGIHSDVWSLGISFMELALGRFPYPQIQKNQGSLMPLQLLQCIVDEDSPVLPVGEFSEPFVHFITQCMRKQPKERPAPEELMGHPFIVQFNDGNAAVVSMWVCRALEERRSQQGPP

Nc1ncnc2c1c(-c1ccccc1)nn2C[C@@H]1SSC[C@H]1O (relative stereo) [Example 28, trans 3-((4-Amino-3-phenyl-1H-pyrazolo[3,4-d]pyrimidin-1-yl)methyl)-1,2-dithiolan-4-ol]
Kd [1]: 5 to 99 nM

Nc1ncnc2c1c(-c1ccc(Cl)cc1)nn2C[C@@H]1SSC[C@H]1O (relative stereo) [Example 30, trans 3-((4-Amino-3-(4-chlorophenyl)-1H-pyrazolo[3,4-d]pyrimidin-1-yl)methyl)-1,2-dithiolan-4-ol]
Kd [1]: < 5 nM

CO[C@@H]1CSS[C@H]1Cn1nc(-c2ccc(Oc3ccccc3)cc2)c2c(N)ncnc21 (relative stereo) [Example 37, trans 1-((4-Methoxy-1,2-dithiolan-3-yl)methyl)-3-(4-phenoxyphenyl)-1H-pyrazolo[3,4-d]pyrimidin-4-amine]
IC50 [2]: 5 to 99 nM | Kd [1]: < 5 nM | Kd [3]: 1000 to 10000 nM | Kd [4]: 5 to 99 nM

CO[C@H]1CSS[C@H]1Cn1nc(-c2ccc(Oc3ccccc3)cc2)c2c(N)ncnc21 (relative stereo) [Example 38, cis 1-((4-Methoxy-1,2-dithiolan-3-yl)methyl)-3-(4-phenoxyphenyl)-1H-pyrazolo[3,4-d]pyrimidin-4-amine]
Kd [1]: < 5 nM | Kd [4]: 5 to 99 nM

Nc1ncnc2c1c(-c1ccc(Oc3ccccc3)cc1)nn2C[C@@H]1SSC[C@H]1OCc1ccccc1 (relative stereo) [Example 39, trans 1-((4-(Benzyloxy)-1,2-dithiolan-3-yl)methyl)-3-(4-phenoxyphenyl)-1H-pyrazolo[3,4-d]pyrimidin-4-amine]
Kd [1]: 5 to 99 nM | Kd [4]: 1000 to 10000 nM

Nc1ncnc2c1c(-c1ccc(Oc3ccccc3)cc1)nn2C[C@@H]1SSC[C@@H]1OCc1ccccc1 (relative stereo) [Example 40, cis 1-((4-(Benzyloxy)-1,2-dithiolan-3-yl)methyl)-3-(4-phenoxyphenyl)-1H-pyrazolo[3,4-d]pyrimidin-4-amine]
IC50 [2]: 1000 to 10000 nM | Kd [1]: 5 to 99 nM | Kd [4]: 100 to 999 nM

Nc1ncnc2c1c(-c1ccc(Oc3ccccc3)cc1)nn2C[C@@H]1SSC[C@H]1O (relative stereo) [Example 42, trans 3-((4-Amino-3-(4-phenoxyphenyl)-1H-pyrazolo[3,4-d]pyrimidin-1-yl)methyl)-1,2-dithiolan-4-ol]
Kd [5]: 1000 to 10000 nM | Kd [4]: 5 to 99 nM | IC50 [6]: 100 to 999 nM

Nc1ncnc2c1c(-c1ccc(Oc3ccccc3)cc1)nn2C[C@@H]1SSC[C@@H]1O (relative stereo) [Example 45, cis 3-((4-Amino-3-(4-phenoxyphenyl)-1H-pyrazolo[3,4-d]pyrimidin-1-yl)methyl)-1,2-dithiolan-4-ol]
Kd [4]: 5 to 99 nM

Nc1ncnc2c1c(C#Cc1ccccc1)nn2C[C@@H]1SSC[C@H]1O (relative stereo) [Example 52, trans 3-(4-Amino-3-(phenylethynyl)-1H-pyrazolo[3,4-d]pyrimidin-1-yl)methyl-1,2-dithiolan-4-ol]
IC50 [7]: 1000 to 10000 nM

Nc1nc2cc(-c3nn(C[C@@H]4SSC[C@H]4OC(=O)c4ccccc4)c4ncnc(N)c34)ccc2o1 (relative stereo) [Example 55, trans 3-((4-Amino-3-(2-aminobenzo[d]oxazol-5-yl)-1H-pyrazolo[3,4-d]pyrimidin-1-yl)methyl)-1,2-dithiolan-4-yl benzoate]
IC50 [7]: 5 to 99 nM | IC50 [8]: 1000 to 10000 nM | IC50 [9]: 100 to 999 nM | IC50 [10]: 1000 to 10000 nM

COc1ccc(-c2nn(CC3SSCC3O)c3ncnc(N)c23)cc1 (stereo not shown) [36 B.]
Kd [1]: 5 to 99 nM | Kd [3]: 100 to 999 nM

Nc1ncnc2c1c(-c1ccc(Oc3ccccc3)cc1)nn2C[C@@H]1SSC[C@H]1O [Example 43 A., (3S,4R)-3-((4-Amino-3-(4-phenoxyphenyl)-1H-pyrazolo[3,4-d]pyrimidin-1-yl)methyl)-1,2-dithiolan-4-ol]
inhibition at 1 µM [11]: 50% | inhibition at 1 µM [12]: 33% | inhibition at 1 µM [13]: 90% | inhibition at 1 µM [14]: 84% | inhibition at 1 µM [15]: 49% | inhibition at 1 µM [16]: 33% | inhibition at 1 µM [17]: 73%

Nc1ncnc2c1c(C#Cc1ccccc1)nn2CC1SSCC1OC(=O)c1ccccc1 (stereo not drawn) [Example 51, trans 3-((4-Amino-3-(phenylethynyl)-1H-pyrazolo[3,4-d]pyrimidin-1-yl)methyl-1,2-dithiolan-4-yl benzoate]
IC50 [7]: 1000 to 10000 nM

Nc1ncnc2c1c(-c1ccc(Oc3ccccc3F)cc1)nn2CC1SSCC1OC(=O)c1ccccc1 (stereo not drawn) [Example 62, trans 3-((4-Amino-3-(4-(2-fluorophenoxyphenyl)-1H-pyrazolo[3,4-d]pyrimidin-1-yl)methyl)-1,2-dithiolan-4-yl benzoate]
IC50 [2]: 5 to 99 nM

Nc1ncnc2c1c(-c1ccc(Oc3ccccc3F)cc1)nn2CC1SSCC1O (stereo not drawn) [Example 63, trans 3-((4-Amino-3-(4-(2-fluorophenoxyphenyl)-1H-pyrazolo[3,4-d]pyrimidin-1-yl)methyl)-1,2-dithiolan-4-ol]
IC50 [2]: 5 to 99 nM
